Laboratory results as given in article PMC10622836, “Crystal structure of histone deacetylase 6 complexed with (R)-lipoic acid, an essential cofactor in central carbon metabolism” (The Journal of Biological Chemistry, 2023).
pKd: −log10 of the molar value.

Molecular target: T1, HDAC6 (histone deacetylase 6) (Danio rerio, UniProt F8W4B7)
T1 construct: catalytic domain 2
T1 sequence (F8W4B7 440-798 limits assumed): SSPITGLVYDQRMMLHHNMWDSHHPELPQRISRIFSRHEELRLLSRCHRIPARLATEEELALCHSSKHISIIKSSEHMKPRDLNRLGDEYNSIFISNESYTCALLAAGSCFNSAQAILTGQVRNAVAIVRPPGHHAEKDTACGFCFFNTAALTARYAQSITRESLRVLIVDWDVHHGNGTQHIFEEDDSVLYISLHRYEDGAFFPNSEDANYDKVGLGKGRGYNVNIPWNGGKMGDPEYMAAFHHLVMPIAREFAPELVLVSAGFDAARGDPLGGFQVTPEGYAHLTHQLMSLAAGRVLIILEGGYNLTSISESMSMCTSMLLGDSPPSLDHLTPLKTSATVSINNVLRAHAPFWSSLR
Test: X-ray crystal structure ([…] Å) and ITC
Type: binding

pKd: 6.46
Compound: O=C(O)CCCC[C@@H](S)CCS [(R)-dihydrolipoic acid]
